# Source: US20240400555A1 (Initial Therapeutics, Inc., priority 2023, published 2024)
# Test system: MV-4-11 cells
# Test: Cell Viability Assay in MV-4-11 Cells
# Type: cell-based
# Settings: Homo sapiens, MV4-11, 72 h
# How it was run: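 MV-4-11 cells at 7,000/well in IMDM with 10% FBS, exposed to compound for 72 h. Viability by CellTiter-Glo luminescence, normalized to DMSO as 100%, fitted with a four-parameter curve.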
row,SMILES,IC50 [nM]
1,"Cc1cccc2ccnc(N(C(=O)c3cccc(C#CCCC(=O)Nc4ccncc4)c3)[C@@H]3CCCNC3)c12 [Example 516, (R)—N-(8-methylisoquinolin-1-yl)-3-(5-oxo-5-(pyridin-4-ylamino)pent-1-yn-1-yl)-N-(piperidin-3-yl)benzamide]",750
2,"Cn1cc(-c2ccc(C(=O)N(c3nccc4sc(-c5cccc(C(=O)Nc6ccccc6)c5)cc34)[C@@H]3CCCNC3)c(F)c2)nn1 [Example 540, 2-fluoro-4-(1-methyltriazol-4-yl)-N-[2-[3-(phenylcarbamoyl)phenyl]thieno[3,2-c]pyridin-4-yl]-N-[(3R)-3-piperidyl]benzamide]",470

# Same assay, conditions: Homo sapiens, MV4-11, 72 h, MV-4-11 cells, 72 h, Cell-Titer Glo; read-out: IC50
row,IC50 [nM],SMILES
1,600,"CNC(=O)c1cc(-c2cc3c(N(C(=O)c4ccc(-n5nnc6cccnc65)cc4F)[C@@H]4CCCNC4)nccc3s2)ccn1 [Example 374, 4-[4-[[2-fluoro-4-(triazolo[4,5-b]pyridin-3-yl)benzoyl]-[(3R)-3-piperidyl]amino]thieno[3,2-c]pyridin-2-yl]-N-methyl-pyridine-2-carboxamide]"
2,46,"COCc1nnc(-c2ccc(C(=O)N(c3nccc4cc(C)cc(C)c34)[C@@H]3CCCNC3)cn2)s1 [Example 896, N-(6,8-dimethyl-1-isoquinolyl)-6-[5-(methoxymethyl)-1,3,4-thiadiazol-2-yl]-N-[(3R)-3-piperidyl] pyridine-3-carboxamide]"
3,> 10000,"Cc1cccc2ccnc(N(C(=O)c3cccc(C#CCCC(=O)O)c3)[C@@H]3CCCNC3)c12 [Example 590, (R)-5-(3-((8-methylisoquinolin-1-yl)(piperidin-3-yl)carbamoyl)phenyl)pent-4-ynoic acid]"
4,> 6300,"Cc1cccc2ccnc(N(C(=O)c3ccc(N4CCOC(C)(C)C4)cc3F)[C@@H]3CCCNC3)c12 [Example 644, 4-(2,2-dimethylmorpholin-4-yl)-2-fluoro-N-(8-methyl-1-isoquinolyl)-N-[(3R)-3-piperidyl] benzamide]"
5,470,Cn1cc(-c2ccc(C(=O)N(c3nccc4sc(-c5ccc(C(C)(C)C(N)=O)cc5)cc34)[C@@H]3CCCNC3)c(F)c2)nn1 [Example 595]
6,61,"COCc1c(-c2ccc(C(=O)N(c3nccc4scc(C)c34)[C@@H]3CCCNC3)c(F)c2)nnn1C [Example 851, 2-fluoro-4-[5-(methoxymethyl)-1-methyl-triazol-4-yl]-N-(3-methylthieno[3,2-c]pyridin-4-yl)-N-[(3R)-3-piperidyl]benzamide]"
7,1100,"Cc1cccc2ccnc(N(C(=O)c3cccc(C#CCCO)c3)[C@@H]3CCCNC3)c12 [Example 512, (R)-3-(4-hydroxybut-1-yn-1-yl)-N-(8-methylisoquinolin-1-yl)-N-(piperidin-3-yl)benzamide]"
8,79,"CCn1cc(-c2ccc(C(=O)N(c3nccc4scc(C)c34)[C@@H]3CCCNC3)c(F)c2)nn1 [Example 704, (R)-4-(1-ethyl-1H-1,2,3-triazol-4-yl)-2-fluoro-N-(3-methylthieno[3,2-c]pyridin-4-yl)-N-(piperidin-3-yl)benzamide]"
9,110,"Cc1cccc2ccnc(N(C(=O)c3ccc(-c4nnc(CCC#N)s4)cc3F)[C@@H]3CCCNC3)c12 [Example 879, 4-[5-(2-cyanoethyl)-1,3,4-thiadiazol-2-yl]-2-fluoro-N-(8-methyl-1-isoquinolyl)-N-[(3R)-3-piperidyl]benzamide]"
10,130,"[2H]C([2H])([2H])c1nnc(-c2ccc(C(=O)N(c3nccc4scc(C)c34)[C@@H]3CCCNC3)cc2)s1 [Example 894, N-(3-methylthieno[3,2-c]pyridin-4-yl)-N-[(3R)-3-piperidyl]-4-[5-(trideuteriomethyl)-1,3,4-thiadiazol-2-yl]benzamide]"
11,32,"Cc1cccc2ccnc(N(C(=O)c3ccc(Nc4nccc(-c5cccnc5)n4)cc3F)[C@@H]3CCCNC3)c12 [Example 727, (R)-2-fluoro-N-(8-methylisoquinolin-1-yl)-N-(piperidin-3-yl)-4-((4-(pyridin-3-yl)pyrimidin-2-yl)amino)benzamide]"
12,160,"Cc1cccc2ccnc(N(C(=O)c3ccc(Nc4nccc(-n5cncn5)n4)cc3F)[C@@H]3CCCNC3)c12 [Example 722, (R)-4-((4-(1H-1,2,4-triazol-1-yl)pyrimidin-2-yl)amino)-2-fluoro-N-(8-methylisoquinolin-1-yl)-N-(piperidin-3-yl)benzamide]"

# The next lines start with the compound.
row,SMILES,IC50 [nM]
1,"Cn1ccc(-c2cc3c(N(C(=O)c4ccc(-n5nnc6cccnc65)cc4F)[C@@H]4CCCNC4)nccc3s2)n1 [Example 438, 2-fluoro-N-[2-(1-methylpyrazol-3-yl)thieno[3,2-c]pyridin-4-yl]-N-[(3R)-3-piperidyl]-4-(triazolo[4,5-b]pyridin-3-yl)benzamide]",220
2,"Cc1cc(Cl)cc2ccnc(N(C(=O)c3ccc(-c4cn(C)nn4)cc3F)[C@H]3CCCNC3)c12 [Example 621, (S)—N-(6-chloro-8-methylisoquinolin-1-yl)-2-fluoro-4-(1-methyl-1H-1,2,3-triazol-4-yl)-N-(piperidin-3-yl)benzamide]",4100
3,"Cc1csc2ccnc(N(C(=O)c3ccc(-c4cn(C)nn4)cn3)[C@@H]3CCCNC3)c12 [Example 811, (R)-5-(1-methyl-1H-1,2,3-triazol-4-yl)-N-(3-methylthieno[3,2-c]pyridin-4-yl)-N-(piperidin-3-yl)picolinamide]",120
4,"Cc1csc2ccnc(N(C(=O)c3ccc(-c4nnc(CCC#N)s4)cc3)[C@@H]3CCCNC3)c12 [Example 882, 4-[5-(2-cyanoethyl)-1,3,4-thiadiazol-2-yl]-N-(3-methylthieno[3,2-c]pyridin-4-yl)-N-[(3R)-3-piperidyl]benzamide]",180
5,"Cc1cccc2ccnc(N(C(=O)c3ccc(-c4nnc(C5CC5)s4)cc3F)[C@@H]3CCCNC3)c12 [Example 836, (R)-4-(5-cyclopropyl-1,3,4-thiadiazol-2-yl)-2-fluoro-N-(8-methylisoquinolin-1-yl)-N-(piperidin-3-yl)benzamide]",89
6,"CCCN(C)c1ccnc(Nc2ccc(C(=O)N(c3nccc4cccc(C)c34)[C@@H]3CCCNC3)c(F)c2)n1 [Example 745, (R)-2-fluoro-4-((4-(methyl(propyl)amino)pyrimidin-2-yl)amino)-N-(8-methylisoquinolin-1-yl)-N-(piperidin-3-yl)benzamide]",160
7,"Cc1cccc2ccnc(N(C(=O)c3cccc(C#CCCCO)c3)[C@@H]3CCCNC3)c12 [Example 513, (R)-3-(5-hydroxypent-1-yn-1-yl)-N-(8-methylisoquinolin-1-yl)-N-(piperidin-3-yl) benzamide]",540
8,"Cc1cccc2ccnc(N(C(=O)c3ccc(Nc4nccc(-c5ccncc5)n4)cc3F)[C@@H]3CCCNC3)c12 [Example 558, (R)-2-fluoro-N-(8-methylisoquinolin-1-yl)-N-(piperidin-3-yl)-4-((4-(pyridin-4-yl)pyrimidin-2-yl)amino)benzamide]",11
9,Cn1cc(-c2ccc(C(=O)N(c3nccc4sc(C(=O)c5cccnc5)cc34)[C@@H]3CCCNC3)c(F)c2)nn1 [Example 563],340
10,"Cc1cccc2ccnc(N(C(=O)c3ccc(Nc4nccc(CN5CCOCC5)n4)cc3F)[C@@H]3CCCNC3)c12 [Example 741, (R)-2-fluoro-N-(8-methylisoquinolin-1-yl)-4-((4-(morpholinomethyl)pyrimidin-2-yl)amino)-N-(piperidin-3-yl)benzamide]",310
